Results from patent US9358300B2, “Transfection reagents” (LIFE TECHNOLOGIES CORPORATION, priority 1998, dated 2016).

Test system: Primary, passaged, normal human fibroblasts (NHFs)
Experiment: Transfection of normal human fibroblasts with pCMV SPORT-β-gal DNA, β-gal activity
Type: cell-based
Conditions: 40 ng pCMV SPORT-β-gal DNA and 0.1 or 0.2 μl lipid per well, ND = no detectable activity
Procedure: The cationic lipid reagents and DNA were diluted separately into 25µl aliquots of serum-free DMEM, containing 1% NEAA. For LIPOFECTAMINE® PLUS, 7 14 μl of PLUS reagent was added to the DNA, mixed, and incubated for 15 minutes at room temperature. The diluted DNA was combined with the diluted lipid and incubated at room temperature for at least 15 minutes to allow the DNA and the lipid to form complexes. Following this incubation the complexes were added directly into the culture medium dropwise and mixed by rocking the culture plate back and forth. The cells were further incubated at 37° C. for a total of 24 hours to allow expression of the lacZ transgene encoded by the reporter plasmid, pCMV SPORT-β-gal. At 24 hours post-transfection, the growth medium and transfection complexes were removed from the wells, and the cells in each well were rinsed briefly with 1 ml of D-PBS (Dulbecco's PBS, Life Technologies, Rockville, Md.). The cells in each well were lysed by the addition of 0.15 to 2.0 ml of […]. The plates were frozen at −80° C. for a minimum of 2 hours, and thawed at room temperature or 37° C. The thawed cell lysates were cleared by centrifugation and the supernatants were assayed for β-gal activity using the enzymatic substrate ONPG. The concentration of total protein in cell lysates was also determined using a Bradford assay (Bio-Rad Laboratories, Hercules Calif.). β-gal activity in transfected cell extracts was calculated against a standard curve and expressed as ng β-gal per surface area of tissue culture plate (ng/cm2) to reflect activity per transfection, or as ng β-gal per μg of total protein (ng/μg) to reflect specific activity.
Primary, passaged, normal human fibroblasts (NHFs) were plated in 96-well plates at a density of 1.6×104 cells per well and transfected the following day. Cells in each well were transfected with 40 ng pCMV SPORT-β-gal DNA and 0.1 or 0.2 μl lipid.
The DNA and lipid were diluted separately into 10 μl of DMEM. The DNA was either used alone or pre-mixed with PLUS, insulin, transferrin, or an integrin-targeting peptide prior to complexing with the lipid. After 15 minutes of complexing, the DNA-lipid was added to cells. Cells were assayed for p-gal activity as described above.

Substance: N^1,N^4-dioleyl-N^1,N^4-di-[2-hydroxy-3-(N-spermine carboxamido)-aminopropyl]-diaminobutane [Compound of Formula VII]
- ACTIVITY (β-gal), DNA and PLUS (DNA pre-mixed with PLUS Reagent): 637.9 ng/βgal/cm^2
- ACTIVITY (β-gal), DNA and INSULIN (DNA pre-mixed with insulin): 195.7 ng/βgal/cm^2
- ACTIVITY (β-gal), DNA and INTEGRIN-TARGETING PRPTIDE (DNA pre-mixed with integrin-targeting peptide): 587.9 ng/βgal/cm^2
- ACTIVITY (β-gal), DNA and TRANSFERRIN (DNA pre-mixed with transferrin): 21.7 ng/βgal/cm^2
- ACTIVITY (β-gal), DNA (DNA used alone): 29.4 ng/βgal/cm^2
